Laboratory results reported in patent US20010006966A1, “Use of 1- (aminoalkyl) -3-quinoxaline-2-on derivatives for the preparation of compounds having an antioxidant action” (priority 1998, published 2001).

Assays:
[1] = human, in vivo
skin cancer = test: Prevention of skin cancer in UV-irradiated guinea pigs; assay type: in vivo; settings: highly concentrated solution brushed on shaved neck; for cancer cells in tissue samples after two weeks of UV irradiation: UV-A, UV-B, UV-C at least two hours per day
Text: Use of 1-(aminoalkyl)-3-quinoxaline-2-on derivatives for preventing skin cancer in guinea pigs.
A group of six guinea pigs was shaved in the neck region and exposed to intensive UV irradiation over a period of at least two hours per day. The UV irradiation contained portions of both UV-A and UV-B and UV-C rays. A highly concentrated solution of Caroverine.hydrochloride was brushed on the shaved neck regions of four of the six guinea pigs prior to the commencement of the first irradation, wherein attention was paid to that the distribution was effected as uniform as possible and over all of the irradiated zone.

HIV = HIV replication in macrophages derived from monocytes; assay type: cell-based
[2] = Comparative studies of antioxidant and radical interceptor property; assay type: biochemical
Text: wherein R is hydroxy, methoxy, ethoxy or hydrogen, or pharmaceutically acceptable salts thereof, for the preparation of compositions acting as antioxidants for preventing or treating diseases caused by free radicals of the oxygen cell metabolism, for stimulating the growth of nerve cells, antagonizing glutamate receptors and/or stimulating the growth of, in particular glutamatergic, nerve cells. […] Moreover, it has been shown in a surprising manner that specific 1-(aminoalkyl)-3-quinoxaline-2-on derivatives and, in particular, Caroverine are capable of antagonizing metabotropic glutamate receptors. Since glutamate receptors and, in particular, metabotropic glutamate receptors have been recognized as promoters or catalysts of intracellular metabolism, Caroverine and other 1-(aminoalkyl)-3-quinoxaline-2-on derivatives are capable of antagonizing, i.e., markedly retarding, in particular, that intracellular metabolism.
For that reason, Caroverine is supposed to be able to facilitate the repair of long-lived organic radicals and damaged biomolecules.

nerve cells = test: In vitro tests for neuroregenerative effect; assay type: cell-based; settings: low dosages, dosages known from the literature
carcinoma of the colon = test: Patients with carcinoma of the colon, added to chemotherapy; assay type: in vivo, human; settings: three patients; with Irinothekam and Oxaliplatine; day 1 i.v., other days 3×3 tablets a day
Text: Three patients aged between 19 and 75 and suffering from carcinoma of the colon were additionally administered Caroverine beside the usual chemotherapy with Irinothekam and Oxaliplatine for the four-week period of chemotherapy, the administration on day 1 having been effected at an elevated dose, i.e., intravenously in physiological saline, and on the other days by administering 3×3 tablets a day.

[3] = Comparative kinetic studies with ABTA, hydroxyl radicals; assay type: biochemical; settings: absence or presence of cerebral homogenate
Procedure: (§1) In respect of the antioxidative effect of 1-(aminoalkyl)-3-quinoxaline-2-on derivatives and in respect of their radical interceptor properties, in vitro tests were carried out with Caroverine and the specific radical intercepting reagent 2,2′-azino-bis(3-ethylbenz)thiazoline-6-sulfonic acid (ABTA) in order to compare the radical interceptor property of Caroverine with that of ABTA. In the presence of highly reactive radicals, ABTA is oxidized to the stable thiazoline cation radical ABTA^+. The intensive green color of that radical was photometrically measured with a main absorption band at 420 nm. […] Caroverine reacted rapidly with free hydroxyl, peroxyl and ABTA cation radicals, as was shown in comparative studies with ABTA in the absence and in the presence of cerebral homogenate. The rate constant for the reaction with hydroxyl radicals was 0.4×10^10 M/l/s and that for peroxyl radicals was 0.5×10^10 M/l/s, as was realized by comparative kinetic studies with ABTA in the absence or in the presence of cerebral homogenate (FIG. 6). […] In doing so, ABTA cation radical formation and reduction were applied, as already mentioned, in order to examine the single electron transfer reactions, since that substance enables direct measurements of radical formation and radical reduction on account of its color.

facial nerve = test: Treatment of patients suffering from facial nerve paralysis; assay type: in vivo, human
Procedure: The neuroregenerative action of Caroverine was further investigated by way of two patients suffering from facial nerve paralysis. Two female patients suffering from a serious paralysis of the […] nerve were treated with Caroverine in the form of a combined cure over a period of 4 weeks, wherein, on the one hand, Caroverine was applied three times a day by intravenously administering 360 mg Caroverine each and the active substance, in addition, was administered in the form of a depot plaster containing 1000 mg Caroverine. The depot plaster was replaced once a week.

Ca2+ ion flux into cells = settings: as stated in EP-A 0 032 564; cited from earlier work
[4] = Treatment of patients suffering from Alzheimer's disease; assay type: in vivo, human; settings: three weeks
Text: By way of two male patients aged between 70 and 75 and suffering from Alzheimer's disease, the effect of Caroverine as a neuroregenerative substance was further investigated. The patients had average body weights of 75 kg and were in-patients. […] The time of treatment in each case was maintained for three weeks.

[5] = tested on: advanced head and throat tumors; test: Patients with advanced head and throat tumors, added to chemotherapy; assay type: in vivo, human; settings: beside the regular chemotherapy
[6] = Comparative kinetic studies with ABTA, peroxyl radicals; assay type: biochemical; settings: absence or presence of cerebral homogenate
Procedure: as §1

[7] = tested on: metabotropic group I glutamate receptors; test: Microelectrodes on the auditory nerve of the narcotized animal; assay type: in vivo, guinea pigs
Text: Furthermore, the inhibiting influence of Caroverine on the metabotropic group I glutamate receptors was investigated on the narcotized animal by applying microelectrodes to the auditory nerve.

[8] = Treatment of patients suffering from type I allergy (hay fever); assay type: in vivo, human; settings: 5 hay fever patients, tablet 150 mg three times a day
Procedure: 5 patients, 2 female and 3 male patients, suffering from type I allergy, namely hay fever, were treated with Caroverine at the occurrence of allergical primary reactions, i.e., sneezing, cervical irritations as well as rhinorrhea. They each received one tablet containing 150 mg Caroverine three times a day.
For comparative reasons, two patients were treated with usual antihistamines, wherein both the primary manifestations of the allergy and, in particular, the secondary manifestations could not be suppressed immediately and completely such that the patients were suffering from their disease hay fever substantially as long as straining by the causers, namely grass pollens, was maintained. Nor was it possible to discontinue the administration of the medicament as long as pollen flight was observed.

[9] = Speech and articulation capacity of a patient after a stroke; assay type: in vivo, human; settings: 4×160 mg i.v. per day, 3 months, approximately 50% at beginning of treatment
Procedure: A patient suffering from serious speech impediments due to a stroke was intravenously administered Caroverine over a period of 3 months at an elevated dose of 4×160 mg Caroverine in physiological saline per day.

[10] = ABTA cation radical formation and reduction, photometric at 420 nm; assay type: biochemical
Procedure: as §1

[11] = tested on: metabotropic group I glutamate receptors; test: Antagonism of metabotropic group I glutamate receptors in the ear of guinea pigs (behavior, ear electrodes); assay type: in vivo; settings: 8 mg/kg into the vein of the ear
Procedure: Use of 1-(aminoalkyl)-3-quinoxaline-2-on derivatives as antagonists of the metabotropic group I glutamate receptors in the ear of guinea pigs.
A group of six guinea pigs was injected hydroxyphenyl glycerin as a receptor agonist into the ear, the receptor responding in a manner so as to strongly increase the auditory performance of the guinea pigs. […] Four of the six guinea pigs were subsequently injected a dose of 8 mg/kg body weight of the guinea pig into the vein of the ear and the behavior of the guinea pigs was observed. […] These behavioral peculiarities of the guinea pigs were also observed by applying electrodes to the ears of the animals, from whose measured data it could be readily read whether the exposure of the animals to unexpected noises caused excitement or not.

auditory nerve = test: Sound audiogram in patients with severe sudden loss of hearing / cochlear implant; assay type: in vivo, human
Procedure: By way of clinical examples, the efficacy of Caroverine (1-diethylaminoethyl-3-(p-methoxybenzyl)-1,2-dihydroquinoxaline-2-on) as a neuroregenerative substance was tested in two patients suffering from a severe sudden loss of hearing. In the enclosed diagram of FIG. 1, the sound audiogram of a patient is shown, the dot-and-dash line illustrating the sound audiogram after a sudden loss of hearing, the broken line illustrating the sound audiogram immediately upon commencement of the treatment, and the full line illustrating the patient's sound audiogram two weeks after the beginning of treatment, the patient over that period having been treated by the administration of an elevated dose of Caroverine. 240 mg Caroverine dissolved in 250 ml physiological saline were each slowly administered intravenously three times a day. […] A cochlear implant was not inserted.

[12] = Treatment of patients suffering from periodic schizophrenia; assay type: in vivo, human
Procedure: 4 patients, two female and two male patients, aged between 40 and 50 and suffering from periodic schizophrenia were treated with elevated doses of Caroverine during massive attacks. […] The treatment time was 7 days, 14 days and 21 days, respectively.

Structure (SMILES): CCN(CC)CCn1c(=O)c(Cc2ccc(O)cc2)nc2ccccc21 [1-diethylaminoethyl-3-(p-hydroxybenzyl)-1,2-dihydroquinoxaline-2-on]
- harmful side effects on the assayed cells (assayed cells): without harmful side effects
- harmful side effects in test animals and patients [1]: without harmful side effects
- cancer cells in tissue samples after two weeks of UV irradiation (skin cancer): identical result

Structure (SMILES): CCN(CC)CCn1c(=O)c(Cc2ccc(OC)cc2)nc2ccccc21 [Caroverine, 1-diethylaminoethyl-3-(p-methoxybenzyl)-1,2-dihydroquinoxaline-2-on]
- replication of HIV in macrophages derived from monocytes (HIV): markedly reduced
- effectiveness relative to the known antioxidants Ascorbate, Trolox and Glutathione [2]: at least three times as effective
- radical interceptor property relative to Melatonine [2]: reach that of Melatonine
- neuroregenerative effect (nerve cells): no neuroregenerative effect
- colon carcinoma after four-week chemotherapy plus Caroverine (carcinoma of the colon): complete disappearance of the colon carcinoma
- rate constant for the reaction with hydroxyl radicals (FIG. 6) [3]: 0.4×10^10 M/l/s
- signs of facial paralysis on further extension of treatment (facial nerve; same regimen, extended period): additional reductions of the paralytical signs
- signs of facial paralysis after 2 weeks (facial nerve; two female patients, 360 mg i.v. three times a day plus depot plaster 1000 mg weekly): improvement in the signs of paralysis
- inhibition of the Ca2+ ion flux into cells (Ca2+ ion flux into cells): up to 50%
- condition of Alzheimer patients, lower dose ([4]; 160 mg in 250 ml saline i.v. three times a day): not as pronounced and sustained
- condition of Alzheimer patients at end of treatment ([4]; two male patients, 400 mg infusion three times a day): marked improvement in the conditions
- harmful side effects on the assayed cells (assayed cells): without harmful side effects
- complete disappearance of head and throat tumors [5]: No complete disappearance of the tumors was feasible
- tumor size, head and throat tumors [5]: reduction of the tumor size
- harmful side effects in test animals and patients [1]: without harmful side effects
- rate constant for the reaction with peroxyl radicals (FIG. 6) [6]: 0.5×10^10 M/l/s
- excitability of the metabotropic group I glutamate receptors [7]: strongly suppressed
- secondary manifestations of the allergic reactions (cervical rubor and the like) [8]: could be avoided
- primary reactions (sneezing, rhinorrhea and the like) ([8]; after two-day administration): completely disappeared
- articulation capacity after the end of treatment (FIG. 4) [9]: 100%
- formation of the ABTA cation radical due to hydroxyl and peroxyl radicals (FIG. 5) ([10]; in the absence and in the presence of cerebral homogenate): able to inhibit the formation of the ABTA cation radical
- ABTA cation radical reduction ([10]; in the presence and in the absence of cerebral homogenate): catalyzes ABTA cation radical reduction
- activity as an electron donor ([10]; low, micromolar concentrations): highly active as an electron donor
- excitement upon unexpected noises, measured data of ear electrodes [11]: excitement was effected not at all or only to an extremely slight extent
- behavior of guinea pigs upon noise after receptor agonist hydroxyphenyl glycerin ([11]; four of six guinea pigs): calmed down immediately
- improvement of hearing performance (sound audiogram, FIG. 2), low doses (auditory nerve; patient, 160 mg three times a day): little significant
- hearing performance (sound audiogram, FIG. 1) (auditory nerve; patient, 240 mg in 250 ml saline i.v. three times a day, two weeks): marked increase in the hearing performance
- hearing performance 0.125 to 2 kHz (sound audiogram, FIG. 2), high doses plus cochlear implant (auditory nerve; patient, 240 mg/250 ml saline four times a day, two weeks, cochlear implant inserted): nearly corresponds to the hearing performance of a healthy individual
- hearing performance 0.250 to 8 kH (sound audiogram, FIG. 3) (auditory nerve; patient, 300 mg in 500 ml saline each day, two weeks, no cochlear implant): essentially corresponds to the hearing performance of a healthy individual
- audition of patients carrying cochlear implants (auditory nerve; simultaneous administration with cochlear implant): clearly enhancing the audition
- persistence of the improvement beyond the treatment time ([12]; 400 mg infusion three times a day, 7, 14 or 21 days): only that patient whose treatment time was 21 days was successful even beyond the treatment time
- behavior of schizophrenia patients during treatment ([12]; 4 patients, 400 mg infusion three times a day, 7, 14 or 21 days): marked improvements in their behaviors
- behavior of schizophrenia patients, combination with Haloperidole ([12]; daily dose 240 mg or 400 mg Caroverine in combination with 10 mg Haloperidole): results analogous to those of the higher-dose administration of Caroverine
- serious side effects usual with psychopharmacological agents (apathetic conditions, weight gains) ([12]; schizophrenia patients): could be avoided

Structure (SMILES): CCN(CC)CCn1c(=O)c(Cc2ccc(OC)cc2)nc2ccccc21.Cl [Caroverine.hydrochloride]
- skin injuries after two weeks of UV irradiation (skin cancer): some reddening of the skin
- cancer cells in tissue samples after two weeks of UV irradiation (skin cancer): no cancer cells could be detected
